# Results from PMC3388095, “Fluorophore Labeled Kinase Detects Ligands That Bind within the MAPK Insert of p38α Kinase” (PLoS ONE, 2012).
# Where “and” joins values, the source holds several entries; their conditions need not be identical. Equal entries are not always repeated.
# Key:
# [1] = biological target: T1, p38α MAPK insert (Homo sapiens, UniProt Q16539, C119S/C162S/S252C); assay: FLiK direct binding assay, acrylodan-labeled p38α (S252C) MAPK insert / lipid binding site; settings: binding to p38α MAPK insert; ratiometric acrylodan emission; each concentration in triplicate
# T1 construct: His-tag with PreScission Protease cleavage site (N); made in house; host or cells: E. coli BL21(DE3) Codon+RIL
# T1 sequence (Q16539 whole entry C119S/C162S/S252C): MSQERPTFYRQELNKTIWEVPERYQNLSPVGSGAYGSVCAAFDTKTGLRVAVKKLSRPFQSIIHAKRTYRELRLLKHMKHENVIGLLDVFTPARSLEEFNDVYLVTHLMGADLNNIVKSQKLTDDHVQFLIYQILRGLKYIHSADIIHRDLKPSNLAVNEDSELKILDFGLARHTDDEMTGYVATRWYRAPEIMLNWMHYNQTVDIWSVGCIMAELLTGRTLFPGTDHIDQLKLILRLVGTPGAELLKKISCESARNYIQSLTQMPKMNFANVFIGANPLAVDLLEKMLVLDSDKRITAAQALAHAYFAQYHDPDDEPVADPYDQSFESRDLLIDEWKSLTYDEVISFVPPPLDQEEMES
# Protocol: The human p38α kinase construct containing the mutations required for specific labeling (C119S/C162S/S252C) as well as wild type p38α were cloned into a pOPINF vector and transformed as an N-terminal His-tag construct with a PreScission Protease cleavage site into BL21(DE3) Codon+RIL E. coli. Protein expression, purification, fluorophore labeling and verification of mono-labeling of the kinase were performed essentially as described previously. Labeling of the mutant p38α protein with thiol-reactive acrylodan was carried out by adding a 1.5∶1 molar excess of the fluorophore (dissolved in DMSO) to the purified protein in 50 mM Hepes Buffer (pH 7.0). The mixture was allowed to react in the dark overnight at 4°C. Unreacted acrylodan was subsequently removed by three cycles of buffer exchange into FLiK Measurement Buffer (50 mM Hepes Buffer, pH 7.4+200 mM NaCl) using a 10k-MWCO Centricon. The protein was concentrated to ∼200 μM, aliquoted and frozen at −80°C. Mono-labeling of the protein was verified by ESI-MS as described previously, [24].
# Characterization of the fluorescence response of MAP insert-labeled p38α was carried out as described previously for p38α labeled on the activation loop. […] Briefly, a polystyrene cuvette containing a suspension of 50 nM acrylodan-labeled p38α in FLiK Buffer was excited at 386 nm and emission spectra were measured in the absence and presence of increasing concentrations of 1b. The compound was dissolved in 100% DMSO and delivered in sequential small doses to a single sample. […] Ratiometric fluorescence readouts are advantageous in that they provide an internal correction for small errors in sample volume which can affect signal intensity. All measurements of the cuvettes were made with a JASCO FP-6500 fluorescence spectrophotometer (JASCO GmbH, Germany).
# The assay was adapted to high-throughput screening formats which enabled KD values to be determined in black small volume assay plates. Briefly, a dilution series of each compound was first prepared in 100% DMSO at 20X the desired final concentration and 1 μL was transferred to the assay plate. Compounds were then mixed with 19 µL of FLiK Buffer (supplemented with 0.01% Triton X-100) containing acrylodan-labeled p38α (100 nM). The final concentration of compound in the dilution series ranged from 0–50 μM (5% v/v DMSO final). Plates were covered with an adhesive aluminum foil and incubated for 30 min at RT prior to measurement of emission intensities at 470 and 520 nm using a Tecan Safire^2 plate reader. […] Binding curves were plotted using the ratio R = I520/I470 to determine the KD.
# [2] = system: p38α; assay: glycine-rich loop FLiK binding assay (library screen); settings: initial library screen
# [3] = system: panel of 95 different kinases; assay: Kinase selectivity profile, 33P-ATP filter-binding assay (whole panel); format: biochemical; settings: 10 µM; 95 kinases
# Protocol: Figure 5 Kinase selectivity profile of 1b. Compound 1b was profiled against a selected panel of 95 different kinases at a concentration of 10 µM employing a radioactive (^33P-ATP) filter-binding assay (National Centre for Protein Kinase Profiling, Dundee). The numbers represent the remaining kinase activity in %. […]
smiles,measurement,setting,value
"Nc1ccc2c(NC3CC3)nc(-c3ccccc3)nc2c1 [1b, N^4-Cyclopropyl-2-phenyl-4,7-quinazolinediamine]",Kd,[1],~2.4 µM and 2.4 µM
same,binding detected by glycine-rich loop FLiK assay,[2],weakly detected
same,inhibition of enzymatic activity across kinase panel,[3],does not inhibit enzymatic activity of any of the tested kinases
